These results are taken from patent US20220267753A1, “RATIONAL THERAPEUTIC TARGETING OF ONCOGENIC IMMUNE SIGNALING STATES IN MYELOID MALIGNANCIES VIA THE UBIQUITIN CONJUGATING ENZYME UBE2N” (CHILDREN'S HOSPITAL MEDICAL CENTER, priority 2019, published 2022).

Values after ≈ are worked out from the molar mass of the structure shown.

For data set [1], the system named is THP1-Blue NF-κB reporter cells. The data set can be described thus: NF-κB activation assay. The format is cell-based, human. The settings on record: for UBE2N-dependent activation of NF-κB, reporter screen: top 14 small molecules. As to the method: THP1-Blue NF-κB reporter cells (Invivogen) were diluted to 100,000 cells/mL and stimulated with 1 μg/mL IL1β, 100 ng/ml Pam3CSK4 or 1 μ/m LPS. The cells were subsequently seeded into a 96 well plate at 20,000 cells per well (200 μl) and introduced to drugs in an increasing concentration. The plates were incubated at 37 C, 5% CO2 for 24 hours. The following day, QuantiBlue Reagent was warmed to 37 C in a water bath and 180 μl was added to each well of a separate, clean 96 well plate. The incubated cells were spun down, and the supernatant was taken for the assay. To perform the assay, 20 μl of supernatant from each well was pipetted into the respective 180 μl QuantiBlue Reagent well, in triplicate. The reaction was mixed and incubated for 1 to 4 hours, when a color gradient could be seen. The absorbance was read at 630 nm for a final readout.

The subject of data set [2] is MOLM-13. The data set can be described thus: Cell proliferation MTS assay / cytotoxicity screen. The format is cell-based, human. The note with it: for cytotoxicity screen in MOLM-13 cells: 2nd screen at 2 μM, 24 hr MTS. As to the method:
AML cell lines (5×10^3 cells/well) were seeded in 96-well plates and grown for 24 to 96 h in serum (10%)-containing medium in the presence or absence of inhibitors at the indicated concentrations. Proliferation was analyzed by means of an MTS assay using the CellTiter 96 Aqueous One Solution Cell Proliferation Assay (Promega, Madison, Wis., USA), according to the manufacturer's instructions. Data are mean with standard deviation from three independent experiments in technical triplicates. For the screening of 160 compounds from the UC library, the cell metabolic activity was assessed at 24 hours of treatment of MOLM-13 cells. Top 15 candidates were re-screened at 2 μM, and the cell metabolic activity was determined at 24 hours of treatment. In certain experiments, cell viability was determined by staining the cells with trypan blue at a 1/2 dilution and counting total number of viable cells upon treatment with UC-764864 or DMSO control. The cells were counted daily for 4 days using an automated cell counter (Countess II FL from Life Technologies). The cell proliferation in primary AMLs in FIG. 9E was performed as follows: 50,000 cells were plated in duplicate in a 96 well plate in IMDM containing 20% heat inactivated FBS plus 10 ng/ml of each SCF, IL3, IL6, TPO, and FLT3. UC-764864 was added at the indicated concentrations and cells were incubated with drug for 3 days, at which point cell viability was measured by MTS according to manufacturer's instructions.

A short description of data set [3]: Plasma stability. The data set is classed as in vitro ADME. Also on record: half-life: dose or concentration left out as unconfirmed. The note with it: C57/Bl6 plasma, concentration 1 (mM), K2EDTA; for half-life: mouse, read-out: Plasma Stability T ½.
Data set [4] in a line: Aqueous solubility. The settings on record: aqueous medium (not further specified); read-out: Aqueous Solubility, highest soluble concentration. The data set is classed as physicochemical.
Data set [5] has as its target T1, UBE2N (Homo sapiens, UniProt P61088).
T1 sequence (P61088 1-152): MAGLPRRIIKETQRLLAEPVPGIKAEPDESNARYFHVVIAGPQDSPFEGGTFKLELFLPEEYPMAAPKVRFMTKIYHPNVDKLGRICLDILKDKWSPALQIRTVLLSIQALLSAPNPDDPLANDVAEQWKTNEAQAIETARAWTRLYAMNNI
Put plainly: Cellular thermal shift assay (CETSA) in MOLM-13 cells. The data set is classed as binding. Also on record: quantification of Ts, for endogenous UBE2N; endogenous in cells; host or cells: MOLM-13. The settings on record: MOLM-13, 1 hour, heat challenge at Tagg(75); read-out: EC50 of stabilization of UBE2N (CETSA). The method, then:
CETSA was performed with MOLM-13 cells cultured in RPMI medium supplemented with 10% FBS. For an initial determination of the melting profile of UBE2N, fresh cell lysate prepared in non-denaturing buffer was dispensed into 96-well PCR plate in the above medium (approx. 8000 cells/well/50 μl), then was subjected to temperature gradient (37-60° C.) for 20 min. Subsequently, centrifugation was performed at 14,000 rpm to sediment the unstable protein content. Supernatant was collected and SDS-PAGE gel was run, and immuno-detection was performed for UBE2N using corresponding primary antibody. Band intensity was quantified on LI-COR C-Digit Blot Scanner, and subsequently Tagg(50) and Tagg(75) values were calculated for UBE2N. In a subsequent run, fresh lysates of MOLM-13 cells were treated at various doses with 4-fold dilutions (10, 2.5, 0.62, 0.15, 0.04, 0.01 and 0.002 .tM) of compounds UC-764864 and UC-764865 together with DMSO control, for 1 hour. Samples were then subjected to heat challenge at Tagg(75) for 20 min, and unstable protein was removed by centrifugation step. Following an immuno-blotting step, bands of remaining stable UBE2N were quantified, normalized to loading control and plotted using GraphPad Prism software. EC50 values of engagement for both compounds with UBE2N were subsequently calculated.

As a reminder, the IC50 is the point on the concentration scale where inhibition reaches its midpoint. One may read the EC50 as the midpoint of the concentration-response curve.

On to `CCc1ccc(C(=O)C=CSc2nc3ccc(C)cc3[nH]2)cc1` [UC-764864, 1-(4-ethylphenyl)-3-[(6-methyl-1H-benzimidazol-2-yl)sulfanyl]prop-2-en-1-one], for which the “UBE2N-mediated NF-κB activity downstream of IL1R, TLR2, TLR4” value in data set [1] (increasing concentrations, concentration dependent, equal potency) is “inhibited UBE2N-mediated NF-κB activity”. In addition, the “UBE2N-dependent activation of NF-κB, reporter screen” value in data set [1] is recorded as “inhibition of UBE2N-dependent signaling”. In addition, the “cytotoxicity screen in MOLM-13 cells” value in data set [2] is listed as “cytotoxic effects”. Also, in data set [2] (Homo sapiens, MOLM-13, MTS, 24 hours), the IC50 is 1900 nM. In data set [3], the “Plasma Stability % Remaning at T60” value was found to be 21.4% and the half-life was determined as 31.8 min. Further, the solubility in data set [4] was found to be 1 µM (≈ 0.322 µg/mL). The EC50 in data set [5] amounted to 2200 nM.

Turning to `COc1ccc(C(=O)C=CSc2nc3ccc(C)cc3[nH]2)cc1` [UC-764865, 1-(4-methoxyphenyl)-3-[(6-methyl-1H-benzimidazol-2-yl)sulfanyl]prop-2-en-1-one], in data set [1], the “UBE2N-dependent activation of NF-κB, reporter screen” value was “inhibition of UBE2N-dependent signaling”. The “cytotoxicity screen in MOLM-13 cells” value in data set [2] was “cytotoxic effects”. In addition, in data set [3], the “Plasma Stability % Remaning at T60” value is given as 39.6% and the half-life came to 53.6 min. Moreover, the solubility in data set [4] turned out to be 5 µM (≈ 1.62 µg/mL). For the same compound, the EC50 in data set [5] was found to be 420 nM.
